Measurements taken from patent US12729218B2, “Glycolipids and use thereof as SK3 ion channel modulators” (priority 2020, dated 2026).

Assays:
[1] = target: T1, SK3 channels (Homo sapiens, UniProt Q9UGI6); assay: Whole-cell patch-clamp of SK3 currents in HEK293T cells expressing SK3 channels; assay type: cell-based; conditions: 10 μM; for time after addition at which the effect on SK3 current was reached / time after application at which the maximum of the activation of SK3 current was reached: currents at 0 mV
T1 construct: expressed in transfected cells
Description: HEK293T were obtained from American Type Culture Collection (ATCC) and cultured in Dulbecco's Modified Eagle's Medium, supplemented with 10% (v:v) fetal bovine serum (Lonza, France), 1 mM pyruvate sodium (Sigma-Aldrich, France), and 1% non-essential amino acid (Sigma-Aldrich, France). Cells were grown in a humidified atmosphere at 37° C. and with 95% air and 5% CO2. HEK293T cells were transduced as previously described to obtain stable expression of homotetramer SK3 channels.
Experiments were performed in the whole-cell configuration of the patch-clamp technique. The patch pipettes were filled with solution contained 145 mM KCl, 1 mM MgCl2, 1 mM Mg-ATP, 0.7 mM CaCl2), 1 mM EGTA and 10 mM HEPES (PCa 6). pH was adjusted to 7.2 with KOH. The bath solution contained 140 mM NaCl, 4 mM KCl, 2 mM CaCl2), 1 mM MgCl2, 10 mM HEPES, 0.33 mM NaH2PO4, and 11.5 mM D-glucose. pH was adjusted to 7.4 with NaOH. Patch-clamp experiments and data analyses were conducted as previously described (Girault, A. et al. Current Cancer Drug Target, 2011, 11, 1111-1125). […] The amplitude of the apamin-sensitive current was obtained by subtraction of the amplitude of the current before and after application of 100 nmol/L apamin (a specific SKCa blocker).
The capacity of the compounds 001-006 (Table 2, FIGS. 1 and 2) to modulate the activity of SK3 currents was measured using the whole cell configuration of the patch-clamp technique. For these acute tests, a concentration of 10 μM for each of the compounds was used.

[2] = tested on: Thoracic aortic segment (smooth muscle cells); assay: Relaxation of phenylephrine pre-contracted, endothelium-removed thoracic aortic rings; design: species or system guinea pig; conditions: 10 μM added 2 times, pre-contracted with 10 μM phenylephrine, 5 minutes after additions
Description: Thoracic aortic segments were isolated from a guinea pig as already indicated by Vandier et al, (Adv Physiol Educ. 2002 December; 26(1-4):195-203). Briefly, thoracic aortic segments were isolated, cleaned of adventitia, and cut into rings. The endothelium was removed and aortic rings, were mounted on stainless steel hooks and suspended in a 30-ml jacketed tissue bath with physiological salt solution (in mm): 120 NaCl, 5.4 KCl, 1 MgCl2, 0.6 NaH2PO4, 25 NaHCO3, 5.6 glucose, 5 Na-pyruvate, and 2 CaCl2, bubbled with 95% 02-5% CO2 maintained at 37° C. and aerated with 95% 02-5% CO2. Solutions to be tested were directly added in the jacketed tissue bath generated allowed one to get the desired concentration around the aortic rings. Isometric force generation was recorded with Grass transducers (FT03; Quincy, MA) connected to an amplifier (gain 500) and analogic to digital converter (1 Hz) connected to a computer.
Thoracic aortic segment was pre-contracted using 10 μM phenylephrine. After the steady state was reached 10 μM of compound 002 was added, two successive times, directly in the bath solution containing a physiological salt solution, maintained at 37° C. and aerated with 95% 02-5% CO2

Substance | time after addition at which the effect on SK3 current was reached [1] [s] | effect on SK3 channel in words [1] | SK3 current (change after application of compound) ([1]; acute, HEK293T expressing SK3, currents analyzed at 0 mV, pCa 6, mean ± SEM) | time after application at which the maximum of the activation of SK3 current was reached [1] [min] | relaxation effect on pre-contracted thoracic aortic segment [2]
Lac(OH)7-O-2-ethoxy-4-S-heneicosane [compound 006] | 30 | – | – | – | –
Lac(OH)7-O-2-methoxy-3-S-hexadecane [compound 001] | – | abolished the activating effect | −9.7% ± 5.2 | – | –
Lac(OH)7-O-2-methoxy-3-S-heneicosane [compound 002] | 30 | strong activator of SK3 channel | – | 5 | dose-dependent relaxation
Lac(OH)7-O-2-methoxy-4-S-heneicosane [compound 003] | – | kept its activation capacity | – | 5 | –
